Earlier results, collected in patent US20110142834A1, “TREATMENT OF HEARING AND BALANCE IMPAIRMENTS USING COMPOUNDS HAVING ERYTHROPOIETIN ACTIVITY” (Edison Pharmaceuticals, Inc., priority 2008, published 2011).

patients displaying some vestibular impairment (2 grams daily for 60 to 120 days): ~75%
Compound: [H]/N=C(/N)N[C@H]1[C@H](O)[C@@H](O)[C@H](O[C@@H]2O[C@@H](C)[C@](O)(C=O)[C@H]2O[C@@H]2O[C@@H](CO)[C@H](O)[C@@H](O)[C@@H]2NC)[C@@H](N/C(N)=N\[H])[C@@H]1O [streptomycin]
incidence of vestibular impairment (1 gram per day): 25%
